Where “and” joins values, the source holds several entries; their conditions need not be identical. Identical values can stand only once. Entries after “also recorded” stand apart in the source; their conditions may differ.
Columns and labels:
[1] = tested on: PANC-1 human pancreatic tumor xenograft; test: PANC-1 human pancreatic tumor xenograft tumor growth inhibition study (Example 3); type: in vivo, female nude mice (nu/nu); details: PANC-1 study
Text: (§1) (Madison, Wis.). […] Tumor measurements were converted to cubic millimeter tumor volume using the formula^(5): […] TGI values for each treatment group are reported at study completion; these calculations are based on the final study day. […] Individual mice lacking palpable tumors were classified as undergoing complete regression (CR). Animals experiencing partial or complete tumor regressions were censored from TGI calculations. However, data from these animals was included in statistical analysis calculations. In addition, weight data from these animals was included in daily and final group calculations. Tumor Necrosis-Degree of tumor necrosis was rated at each tumor measurement using the following arbitrary index: […]

[2] = Animal weight and drug toxicity, PANC-1 study
Text: (§2) Model Information—Female nude mice (nu/nu) between 5 and 6 weeks of age weighing approximately 20 grams were obtained from Harlan, Inc. (Madison, Wis.). PANC-1, obtained from the ATCC, is a pancreas tumor cell line originating from a person^(1-2). BxPC-3, obtained from the American Type Culture Collection (ATCC), is a pancreas tumor cell line originating from a person^(3-4). PANC-1 Study: Animals were implanted subcutaneously (SC) by trocar with fragments of PANC-1 harvested from SC growing tumors in nude mice hosts. When tumors grew to approximately 135 cubic millimeters (mm^3) in size (17 days following implantation, animals were pair-matched by tumor size into treatment and control groups; each treatment group contained nine mice. BxPC-3 Study: Animals were implanted subcutaneously (SC) by trocar with fragments of BxPC-3 harvested from SC growing tumors in nude mice hosts. When tumors grew to approximately 85 cubic millimeters (mm^3) in size (19 days following implantation), animals were pair-matched by tumor size into treatment and control groups; each treatment group contained nine mice. Animals in both studies were ear-tagged and followed individually throughout the experiment.
(§3) Study Design and Dosing—Initial doses were administered on Day 1 following pair-matching; both experiments were carried out as tumor growth inhibition (TGI) studies. Animals were dosed intravenously (IV) via tail vein with FK228 once every four days for three treatments (Q4Dx3) or by intraperitoneal (IP) injection with gemcitabine once every three days for four treatments (Q3Dx4), either alone or in combination, at the doses listed below (Table 1). To serve as a negative control, FK228 vehicle (2% ethanol, 8% propylene glycol, 90% 0.9% saline) was injected on a Q4Dx3 schedule.
(§4) Animal Weights—Individual and group mean weights±SD and percent weight change through Day 25 (PANC-1) or Day 29 (BxPC-3) were recorded twice weekly until study completion beginning Day 1. Final group mean weights±SD and group nadir values are reported; weight data from individual animals experiencing technical or drug-related deaths was censored from final group calculations.
(§5) Moribundity/Mortality—Animals were observed twice weekly for general moribundity and daily for mortality. Animal deaths were assessed as drug-related or technical based on factors including gross observation and weight loss; reported animal death information includes type, number, and day of death for each group.

[3] = tested on: BxPC-3 human pancreatic tumor xenograft; test: BxPC-3 human pancreatic tumor xenograft tumor growth inhibition study (Example 3); type: in vivo, female nude mice (nu/nu); details: BxPC-3 study; for % TGI: Day 29
Text: as §1

acetylated histone 3 = test: Tissue biomarker immunoblotting of PANC-1 xenograft tumors: acetylated histone 3; type: in vivo; details: PANC-1 tumors at study completion; FK228 5 mg/kg Q4Dx3, gemcitabine 80 mg/kg Q3Dx4, or both
Description: (§6) Specimen Collection: […] Tumor xenograft tissue and serum specimens were obtained from in vivo studies performed by the Preclinical Research Laboratory at the completion of the experiments. […] Serum was obtained from whole blood and stored frozen at -70° C. Tissue Biomarkers: Tumor levels of acetylated histone-4, histone-4, […] were quantified by immunoblotting as described. Briefly, frozen tissue was pulverized under liquid nitrogen and homogenized in hypotonic lysis buffer. Small aliquots of the extracts were used for analysis of protein concentration by micro-BCA assay with bovine serum albumin as a protein standard. An equal amount of extracts containing about 20-50 μg protein was electrophoresed in SDS polyacrylamide gels. Proteins were transferred to ImmunoBlot PVDF membrane and were probed with appropriate primary and secondary antibodies. The chemiluminescence signal was captured by autoradiography, quantified by densitometry and expressed as a ratio of actin in each sample lane. For each biomarker, means and standard errors were calculated in each treatment group. […] Following quantitative analysis of biomarker levels in each sample, the results were normalized for b-actin and expressed as percentages of untreated controls. […]

[4] = Animal weight and drug toxicity, BxPC-3 study
Text: as §2, §3, §4, §5

p21^waf = test: Tissue biomarker immunoblotting of PANC-1 xenograft tumors: p21waf; type: in vivo; details: PANC-1 tumors at study completion; FK228 5 mg/kg Q4Dx3, gemcitabine 80 mg/kg Q3Dx4, or both
Description: as §6

[5] = tested on: Panc-1 human pancreas tumors (oncogenic K-ras); test: Panc-1 mouse xenograft model, tumor growth (Example 1); type: in vivo, female nude mice; details: Panc-1 xenograft; N=9 mice per group
Description: In this study, female nude mice were implanted subcutaneously (SC) by trocar with Panc-1 tumor fragments harvested from SC growing tumors in nude mice hosts. […] The day of treatment initiation was specified as Day 1. Vehicle control and FK228 were administered intravenously on a […] schedule (Days 1, 5, and 9). Gemcitabine was administered by an intraperitoneal injection on a […] schedule (Days 1, 4, 7, 10). Tumors were measured by Vernier calipers twice weekly.

c-Myc = test: Tissue biomarker immunoblotting of PANC-1 xenograft tumors: c-Myc; type: in vivo; details: PANC-1 tumors at study completion; FK228 5 mg/kg Q4Dx3, gemcitabine 80 mg/kg Q3Dx4, or both; actin-normalized vs control
Description: as §6

acetylated histone 4 = test: Tissue biomarker immunoblotting of PANC-1 xenograft tumors: acetylated histone 4; type: in vivo; details: PANC-1 tumors at study completion; FK228 5 mg/kg Q4Dx3, gemcitabine 80 mg/kg Q3Dx4, or both
Description: as §6

[6] = at the evaluated doses and schedules
[7] = Day 25, Gemcitabine 40 mg/kg IP Q3Dx4
[8] = Day 25, Gemcitabine 80 mg/kg IP Q3Dx4
[9] = Day 29, Gemcitabine 40 mg/kg IP Q3Dx4
[10] = Day 29, Gemcitabine 80 mg/kg IP Q3Dx4

Nc1ccn([C@@H]2O[C@H](CO)[C@@H](O)C2(F)F)c(=O)n1 [Gemcitabine, gemcitabine]
#PR/CR ([1]; Gemcitabine 40 mg/kg IP Q3Dx4): 1/9 and 1/0
Activity according to NCI standards ([1]; Gemcitabine 40 mg/kg IP Q3Dx4): inactive
Tumor necrosis ([1]; Gemcitabine 40 mg/kg IP Q3Dx4): 1/9 animals reported mild tumor necrosis and 4/9 reported moderate necrosis
#PR/CR ([1]; Gemcitabine 80 mg/kg IP Q3Dx4): 0/9 and 0/0
% TR ([1]; Gemcitabine 80 mg/kg IP Q3Dx4): 0%
Activity according to NCI standards ([1]; Gemcitabine 80 mg/kg IP Q3Dx4): inactive
Tumor necrosis ([1]; Gemcitabine 80 mg/kg IP Q3Dx4): 1/9 animals reported slight tumor necrosis, 2/9 reported mild tumor necrosis, and 1/9 reported moderate necrosis
calculated TGI values [1, 6]: less than 58%
Final weight data % change [2, 7]: +7%
Final weight data mean ± SD [2, 7]: 24±1 G
Final weight data % change [2, 8]: +12%
Final weight data mean ± SD [2, 8]: 26±3 G
Drug deaths total ([2]; Gemcitabine 40 mg/kg IP Q3Dx4): 0/9 and 0
Weight nadir % change ([2]; Gemcitabine 40 mg/kg IP Q3Dx4): −2%
Weight nadir day ([2]; Gemcitabine 40 mg/kg IP Q3Dx4): 11
Drug deaths total ([2]; Gemcitabine 80 mg/kg IP Q3Dx4): 0/9 and 0
Weight nadir % change ([2]; Gemcitabine 80 mg/kg IP Q3Dx4): −3%
Weight nadir day ([2]; Gemcitabine 80 mg/kg IP Q3Dx4): 11
% TGI ([3]; Gemcitabine 40 mg/kg IP Q3Dx4): 20%
% TGI ([3]; Gemcitabine 80 mg/kg IP Q3Dx4): 9%
#PR/CR ([3]; Gemcitabine 40 mg/kg IP Q3Dx4): 0/9 and 0/0
Activity according to NCI standards ([3]; Gemcitabine 40 mg/kg IP Q3Dx4): inactive
Tumor necrosis ([3]; Gemcitabine 40 mg/kg IP Q3Dx4): 1/9 animals reported severe tumor necrosis
#PR/CR ([3]; Gemcitabine 80 mg/kg IP Q3Dx4): 0/9 and 0/0
Activity according to NCI standards ([3]; Gemcitabine 80 mg/kg IP Q3Dx4): inactive
Tumor necrosis ([3]; Gemcitabine 80 mg/kg IP Q3Dx4): 1/9 animals reported mild tumor necrosis
calculated TGI values [3, 6]: less than 58%
acetylation of histone 3 (acetylated histone 3): significantly inhibited
Final weight data % change [4, 9]: +9%
Final weight data mean ± SD [4, 9]: 25±3 G
Final weight data % change [4, 10]: +1%
Final weight data mean ± SD [4, 10]: 22±4 G
Drug deaths total ([4]; Gemcitabine 40 mg/kg IP Q3Dx4): 0/9 and 0
Weight nadir % change ([4]; Gemcitabine 40 mg/kg IP Q3Dx4): No weight loss
Drug deaths total ([4]; Gemcitabine 80 mg/kg IP Q3Dx4): 0/9 and 0
Weight nadir % change ([4]; Gemcitabine 80 mg/kg IP Q3Dx4): −9%
Weight nadir day ([4]; Gemcitabine 80 mg/kg IP Q3Dx4): 11
p21^waf expression (p21^waf): downregulated; also recorded: down-regulated
tumor regression [5]: no regression
extent of inhibition of c-Myc expression (c-Myc): 50%
levels of acetylated histone 4 vs control (acetylated histone 4): on the control level

From patent US9539303B2, “Treatment of Ras-expressing tumors” (Celgene Corporation, priority 2006, dated 2017)
